According to US10626089B2, “Quinoline derivative in crystal form” (GB001, Inc., priority 2016, dated 2020):
Where a name gives a salt, the structure may show the parent alone.

Tests used:
[1] = Storage stability: total related substances by liquid chromatography before and after storage; assay type: physicochemical; details: for total amount of related substances (produced impurities), at the start: before storage; for total amount of related substances (produced impurities), at the start / total amount of related substances (produced impurities), after 3 months: liquid chromatography, related substances measured to ≥0.03%; for total amount of related substances (produced impurities), after 3 months: tightly sealed glass vessel, relative humidity 75° C.
Procedure: The storage stability of the compound (I) crystal form A obtained in example 1 was compared with that of the free-form crystals obtained in comparative example 1.
The respective crystals were introduced into a glass vessel which was then tightly sealed and stored at 40° C., relative humidity […] for 3 months; the amount of related substances before and after storage was measured by liquid chromatography; the results are shown in Table 1. The values are the total amount of related substances, which are produced impurities, as measured to ≥0.03%.

[2] = Retention of water of crystallization on heated drying under reduced pressure; assay type: physicochemical; details: 80° C.
From the text: Inventive crystal form B of compound (I) is a hydrate crystal form, and can be obtained using a combination of solvents that includes water. Alcohols such as ethanol and 2-propanol are preferred as the solvent used in combination with water. For example, the crystal form can be obtained by dissolving compound (I) in a mixed solvent containing ethanol and water at a ratio of 1:1 (80×volume), concentrating and then drying. The drying can comprise natural drying, drying under reduced pressure, heated drying, or heated drying under reduced pressure.

Row | melting point [°C] | total amount of related substances (produced impurities), at the start [1] [%] | total amount of related substances (produced impurities), after 3 months ([1]; 40° C.) [%] | SMILES | storage stability compared with the free-form crystals ([1]; 40° C., relative humidity 75, 3 months) | loss of water of crystallization [2]
1 | 141 |  |  | CCc1nc2c(Cl)ccc(OCC(=O)O)c2c(OC(F)F)c1Cc1ccc(Cl)cc1 (as salt: salt) [Free-form crystals, [8-chloro-3-(4-chlorobenzyl)-4-difluoromethoxy-2-ethylquinolin-5-yloxy]acetic Acid] |  | 
2 |  | 1.37 | 1.95 | CCc1nc2c(Cl)ccc(OCC(=O)O)c2c(OC(F)F)c1Cc1ccc(Cl)cc1 [Free-form crystals, [8-chloro-3-(4-chlorobenzyl)-4-difluoromethoxy-2-ethylquinolin-5-yloxy]acetic Acid, reference compound] |  | 
3 |  | 0.53 | 0.59 | CCc1nc2c(Cl)ccc(OCC(=O)O)c2c(OC(F)F)c1Cc1ccc(Cl)cc1.NCCCC[C@H](N)C(=O)O [Compound (I) crystal form A, [8-chloro-3-(4-chlorobenzyl)-4-difluoro-methoxy-2-ethylquinolin-5-yloxy]acetic Acid L-Lysine Salt in Crystal Form A] | better storage stability than the free-form crystals | 
4 |  |  |  | CCc1nc2c(Cl)ccc(OCC(=O)O)c2c(OC(F)F)c1Cc1ccc(Cl)cc1.NCCCC[C@H](N)C(=O)O [crystal form B of compound (I), [8-chloro-3-(4-chlorobenzyl)-4-difluoro-methoxy-2-ethylquinolin-5-yloxy]acetic Acid L-Lysine Salt in Crystal Form B] |  | no water of crystallization is lost even at 80 °C
